Measured values reported in publication PMC10813393 (Biomolecules, 2023).
Read-outs that look alike come from different tables or passages of the source.

Legend:
[1] = test system: α-SARS-CoV-2 spike pseudotyped virus particles; type: cell-based; details: luciferase 72 h post-transduction
[2] = test system: o-SARS-CoV-2 spike pseudotyped virus particles (BA.2 lineage); type: cell-based; details: luciferase 72 h post-transduction
[3] = cell-pretreatment protocol: VERO cells with FA 20 μM or L7OG 5 μM for 2 h

Q: How did the “entry of α-SARS-CoV-2 pseudovirus (in words)” value [1, 3] turn out when O=C(O)[C@H]1O[C@@H](Oc2cc(O)c3c(=O)cc(-c4ccc(O)c(O)c4)oc3c2)[C@H](O)[C@@H](O)[C@@H]1O [Compound L7OG, luteolin-7-O-glucuronide] was run?
A: neither L7OG nor FA inhibited the entry

Q: What about the “entry of o-SARS-CoV-2 pseudovirus (in words)” value [2, 3] of the same compound?
A: neither L7OG nor FA inhibited the entry

Q: For Nc1nc(=O)c2nc(CNc3ccc(C(=O)N[C@@H](CCC(=O)O)C(=O)O)cc3)cnc2[nH]1 [FA, folic acid, reference compound], which “entry of α-SARS-CoV-2 pseudovirus (in words)” value ([1]; […], VERO cells) is on record?
A: blocked the entry

Q: And the “entry of α-SARS-CoV-2 pseudovirus (in words)” value [1, 3]?
A: neither L7OG nor FA inhibited the entry

Q: And the “entry of o-SARS-CoV-2 pseudovirus (in words)” value ([2]; […], VERO cells)?
A: blocked the entry

Q: And the “entry of o-SARS-CoV-2 pseudovirus (in words)” value [2, 3]?
A: neither L7OG nor FA inhibited the entry
